What was measured:
Assay in all cases: split-luciferase competition binding
SGK2 (human) = SGK2 (human) (UniProt Q9HBY8); conditions: compound 10.0 µM
AKT3 (human) = AKT3 (human) (UniProt Q9Y243); conditions: compound 10.0 µM
SGK3 (human) = SGK3 (human) (UniProt Q96BR1); conditions: compound 10.0 µM
PDPK1 (human) = PDPK1 (human) (UniProt O15530); conditions: compound 10.0 µM
RPS6KA6 KD1 (human) = RPS6KA6 KD1 (human) (UniProt Q9UK32); conditions: compound 10.0 µM
PRKX (human) = PRKX (human) (UniProt P51817); conditions: compound 10.0 µM
Chain of PRKX (human) (P51817 whole entry, looked up): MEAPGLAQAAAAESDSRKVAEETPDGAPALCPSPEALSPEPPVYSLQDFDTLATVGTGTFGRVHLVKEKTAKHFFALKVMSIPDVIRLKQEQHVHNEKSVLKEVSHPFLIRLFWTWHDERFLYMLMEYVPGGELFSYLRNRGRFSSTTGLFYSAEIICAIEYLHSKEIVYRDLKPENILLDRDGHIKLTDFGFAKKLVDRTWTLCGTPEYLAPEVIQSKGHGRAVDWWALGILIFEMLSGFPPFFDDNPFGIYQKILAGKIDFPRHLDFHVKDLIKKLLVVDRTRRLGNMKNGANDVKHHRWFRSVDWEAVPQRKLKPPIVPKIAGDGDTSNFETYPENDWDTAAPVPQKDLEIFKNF

AURKC (human) = AURKC (human) (UniProt Q9UQB9); conditions: compound 10.0 µM
Chain of AURKC (human) (Q9UQB9 whole entry, looked up): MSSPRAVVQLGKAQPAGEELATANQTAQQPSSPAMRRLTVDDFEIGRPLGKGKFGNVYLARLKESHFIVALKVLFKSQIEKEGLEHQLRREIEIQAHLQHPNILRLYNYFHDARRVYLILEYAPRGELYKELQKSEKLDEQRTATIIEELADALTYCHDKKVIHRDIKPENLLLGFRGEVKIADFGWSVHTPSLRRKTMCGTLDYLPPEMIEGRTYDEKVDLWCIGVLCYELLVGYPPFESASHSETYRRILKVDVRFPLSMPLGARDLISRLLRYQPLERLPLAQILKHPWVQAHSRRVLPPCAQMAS

STK32B (human) = STK32B (human) (UniProt Q9NY57); conditions: compound 10.0 µM
Chain of STK32B (human) (Q9NY57 whole entry, looked up): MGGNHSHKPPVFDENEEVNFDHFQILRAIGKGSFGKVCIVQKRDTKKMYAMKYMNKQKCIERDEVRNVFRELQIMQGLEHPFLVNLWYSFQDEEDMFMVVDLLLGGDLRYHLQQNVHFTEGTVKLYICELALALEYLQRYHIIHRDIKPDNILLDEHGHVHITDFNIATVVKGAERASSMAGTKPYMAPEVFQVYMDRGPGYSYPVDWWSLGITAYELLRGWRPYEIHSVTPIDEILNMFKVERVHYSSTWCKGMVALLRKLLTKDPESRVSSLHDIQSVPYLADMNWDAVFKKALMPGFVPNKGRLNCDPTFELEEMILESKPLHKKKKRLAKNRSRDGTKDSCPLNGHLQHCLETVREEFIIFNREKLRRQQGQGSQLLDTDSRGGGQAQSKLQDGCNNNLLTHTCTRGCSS

PRKCI (human) = PRKCI (human) (UniProt P41743); conditions: compound 10.0 µM
PRKACB (human) = PRKACB (human) (UniProt P22694); conditions: compound 10.0 µM
PRKCQ (human) = PRKCQ (human) (UniProt Q04759); conditions: compound 10.0 µM
PRKCE (human) = PRKCE (human) (UniProt Q02156); conditions: compound 10.0 µM
AURKB (human) = AURKB (human) (UniProt Q96GD4); conditions: compound 10.0 µM
PKN1 (human) = PKN1 (human) (UniProt Q16512); conditions: compound 10.0 µM
Chain of PKN1 (human) (Q16512 whole entry, looked up): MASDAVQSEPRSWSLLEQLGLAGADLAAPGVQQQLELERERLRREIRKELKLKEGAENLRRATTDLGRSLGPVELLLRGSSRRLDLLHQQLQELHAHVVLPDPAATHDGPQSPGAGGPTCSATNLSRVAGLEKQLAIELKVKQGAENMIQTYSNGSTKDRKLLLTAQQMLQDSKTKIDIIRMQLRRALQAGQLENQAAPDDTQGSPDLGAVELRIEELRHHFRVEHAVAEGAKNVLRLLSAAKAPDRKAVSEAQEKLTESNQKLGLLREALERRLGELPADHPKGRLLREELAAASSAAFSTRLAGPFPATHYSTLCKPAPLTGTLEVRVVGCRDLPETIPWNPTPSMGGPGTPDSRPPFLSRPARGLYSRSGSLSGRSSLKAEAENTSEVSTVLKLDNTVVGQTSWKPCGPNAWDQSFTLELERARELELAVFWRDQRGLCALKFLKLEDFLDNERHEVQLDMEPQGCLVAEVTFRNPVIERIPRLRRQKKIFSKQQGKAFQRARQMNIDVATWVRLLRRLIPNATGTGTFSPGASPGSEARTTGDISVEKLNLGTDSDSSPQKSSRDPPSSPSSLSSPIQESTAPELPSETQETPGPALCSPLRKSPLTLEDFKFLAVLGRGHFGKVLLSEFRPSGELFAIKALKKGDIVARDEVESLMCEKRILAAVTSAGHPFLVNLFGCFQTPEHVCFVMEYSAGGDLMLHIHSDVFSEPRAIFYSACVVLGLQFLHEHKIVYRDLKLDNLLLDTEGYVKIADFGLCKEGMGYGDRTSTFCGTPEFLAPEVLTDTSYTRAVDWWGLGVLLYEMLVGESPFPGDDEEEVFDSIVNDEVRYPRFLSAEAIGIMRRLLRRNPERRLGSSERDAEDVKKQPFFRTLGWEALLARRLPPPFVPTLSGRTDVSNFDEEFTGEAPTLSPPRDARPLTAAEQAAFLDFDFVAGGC

AKT1 (human) = AKT1 (human) (UniProt P31749); conditions: compound 10.0 µM
PRKCG (human) = PRKCG (human) (UniProt P05129); conditions: compound 10.0 µM
PRKACA (mouse) = conditions: compound 10.0 µM; accession and sequence are those of the human protein
RPS6KA4 KD1 (human) = RPS6KA4 KD1 (human) (UniProt O75676); conditions: compound 10.0 µM
PRKCH (human) = PRKCH (human) (UniProt P24723); conditions: compound 10.0 µM
Chain of PRKCH (human) (P24723 whole entry, looked up): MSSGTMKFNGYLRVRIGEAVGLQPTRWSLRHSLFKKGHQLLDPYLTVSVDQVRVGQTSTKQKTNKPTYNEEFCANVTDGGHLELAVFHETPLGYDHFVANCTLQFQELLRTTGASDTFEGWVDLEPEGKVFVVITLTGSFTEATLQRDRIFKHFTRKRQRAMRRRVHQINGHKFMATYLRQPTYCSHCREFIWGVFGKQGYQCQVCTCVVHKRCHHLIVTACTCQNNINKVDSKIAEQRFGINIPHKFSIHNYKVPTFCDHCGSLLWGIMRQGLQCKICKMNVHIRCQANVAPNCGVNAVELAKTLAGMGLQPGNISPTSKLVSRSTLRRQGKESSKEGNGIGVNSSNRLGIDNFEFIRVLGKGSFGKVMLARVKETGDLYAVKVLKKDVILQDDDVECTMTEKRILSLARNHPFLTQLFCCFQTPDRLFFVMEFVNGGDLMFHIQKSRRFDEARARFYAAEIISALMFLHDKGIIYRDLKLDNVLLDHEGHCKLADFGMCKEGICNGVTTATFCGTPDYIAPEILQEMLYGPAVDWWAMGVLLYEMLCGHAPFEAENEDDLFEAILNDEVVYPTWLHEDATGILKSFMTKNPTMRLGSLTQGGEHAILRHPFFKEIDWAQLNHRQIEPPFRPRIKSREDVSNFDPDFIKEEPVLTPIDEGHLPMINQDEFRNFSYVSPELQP

AURKA (human) = AURKA (human) (UniProt O14965); conditions: compound 10.0 µM
Chain of AURKA (human) (O14965 whole entry, looked up): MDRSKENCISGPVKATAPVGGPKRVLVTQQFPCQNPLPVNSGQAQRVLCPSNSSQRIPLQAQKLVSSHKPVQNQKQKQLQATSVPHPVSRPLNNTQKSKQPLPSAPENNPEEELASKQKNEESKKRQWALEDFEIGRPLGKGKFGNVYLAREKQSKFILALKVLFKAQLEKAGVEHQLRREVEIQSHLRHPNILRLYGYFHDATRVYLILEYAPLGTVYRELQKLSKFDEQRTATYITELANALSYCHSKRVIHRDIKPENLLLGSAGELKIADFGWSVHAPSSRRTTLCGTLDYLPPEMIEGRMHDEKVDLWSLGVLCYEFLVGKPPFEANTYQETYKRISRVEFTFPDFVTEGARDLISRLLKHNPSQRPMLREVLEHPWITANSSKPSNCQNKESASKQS

PRKCD (human) = PRKCD (human) (UniProt Q05655); conditions: compound 10.0 µM
RPS6KA3 KD1 (human) = RPS6KA3 KD1 (human) (UniProt P51812); conditions: compound 10.0 µM
RPS6KA2 KD1 (human) = RPS6KA2 KD1 (human) (UniProt Q15349); conditions: compound 10.0 µM
Chain of RPS6KA2 KD1 (human) (Q15349 whole entry, looked up): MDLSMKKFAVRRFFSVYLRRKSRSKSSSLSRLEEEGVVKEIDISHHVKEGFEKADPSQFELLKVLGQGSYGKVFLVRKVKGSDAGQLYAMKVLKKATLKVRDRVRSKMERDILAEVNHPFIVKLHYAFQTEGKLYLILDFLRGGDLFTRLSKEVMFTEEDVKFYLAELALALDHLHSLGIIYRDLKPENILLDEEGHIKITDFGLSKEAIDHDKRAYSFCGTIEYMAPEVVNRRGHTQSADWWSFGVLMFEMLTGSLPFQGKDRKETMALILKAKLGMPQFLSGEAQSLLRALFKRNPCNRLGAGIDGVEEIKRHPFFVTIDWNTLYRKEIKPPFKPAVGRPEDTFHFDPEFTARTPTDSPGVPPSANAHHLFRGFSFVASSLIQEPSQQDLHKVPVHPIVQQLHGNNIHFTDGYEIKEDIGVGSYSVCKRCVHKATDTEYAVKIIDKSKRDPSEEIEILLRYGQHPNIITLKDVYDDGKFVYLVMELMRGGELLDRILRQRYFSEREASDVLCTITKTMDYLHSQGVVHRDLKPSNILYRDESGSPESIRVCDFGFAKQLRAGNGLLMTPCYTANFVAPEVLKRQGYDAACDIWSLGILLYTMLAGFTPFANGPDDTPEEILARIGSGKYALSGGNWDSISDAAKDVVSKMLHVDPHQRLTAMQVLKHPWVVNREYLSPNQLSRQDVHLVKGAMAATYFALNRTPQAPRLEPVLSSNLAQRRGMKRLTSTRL

RPS6KA1 KD1 (human) = RPS6KA1 KD1 (human) (UniProt Q15418); conditions: compound 10.0 µM
DMPK (human) = DMPK (human) (UniProt Q09013); conditions: compound 10.0 µM
AKT2 (human) = AKT2 (human) (UniProt P31751); conditions: compound 10.0 µM
Chain of AKT2 (human) (P31751 whole entry, looked up): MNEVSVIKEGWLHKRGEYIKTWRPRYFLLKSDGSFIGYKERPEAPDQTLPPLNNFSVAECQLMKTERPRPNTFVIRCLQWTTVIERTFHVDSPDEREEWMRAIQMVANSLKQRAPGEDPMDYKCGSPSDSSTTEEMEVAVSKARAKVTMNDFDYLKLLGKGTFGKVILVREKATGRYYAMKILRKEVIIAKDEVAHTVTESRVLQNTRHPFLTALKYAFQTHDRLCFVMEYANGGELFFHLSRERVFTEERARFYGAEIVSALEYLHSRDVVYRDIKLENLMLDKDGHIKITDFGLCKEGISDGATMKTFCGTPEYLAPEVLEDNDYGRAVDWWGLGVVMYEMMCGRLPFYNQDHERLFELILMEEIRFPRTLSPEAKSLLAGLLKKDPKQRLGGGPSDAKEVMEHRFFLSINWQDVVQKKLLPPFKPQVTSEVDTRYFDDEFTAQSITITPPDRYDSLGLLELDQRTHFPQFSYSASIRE

RPS6KA5 KD1 (human) = RPS6KA5 KD1 (human) (UniProt O75582); conditions: compound 10.0 µM

SMILES	inhibition (SGK2 (human)) [%]	inhibition (AKT3 (human)) [%]	inhibition (SGK3 (human)) [%]	inhibition (PDPK1 (human)) [%]	inhibition (RPS6KA6 KD1 (human)) [%]	inhibition (PRKX (human)) [%]	inhibition (AURKC (human)) [%]	inhibition (STK32B (human)) [%]	inhibition (PRKCI (human)) [%]	inhibition (PRKACB (human)) [%]	inhibition (PRKCQ (human)) [%]	inhibition (PRKCE (human)) [%]	inhibition (AURKB (human)) [%]	inhibition (PKN1 (human)) [%]	inhibition (AKT1 (human)) [%]	inhibition (PRKCG (human)) [%]	inhibition (PRKACA (mouse)) [%]	inhibition (RPS6KA4 KD1 (human)) [%]	inhibition (PRKCH (human)) [%]	inhibition (AURKA (human)) [%]	further results
O=C1NC(=O)C(c2ccccc2[N+](=O)[O-])=C1Nc1ccc(O)c(Cl)c1	0	0	0	0	9	2	23	0	0	5	0	4	12	0	0	0	0	0	2	6	inhibition (PRKCD (human)): 9%; inhibition (RPS6KA3 KD1 (human)): 0%; inhibition (RPS6KA2 KD1 (human)): 0%; inhibition (RPS6KA1 KD1 (human)): 7%; inhibition (DMPK (human)): 0%; inhibition (AKT2 (human)): 0%; inhibition (RPS6KA5 KD1 (human)): 0%
O=S(=O)(c1cccc2c(O)nccc12)N1CCCNCC1	0	0	0	0	0	53	5	0	37	0	15	0	14	6	0	0	19	0	0	0	inhibition (PRKCD (human)): 0%; inhibition (RPS6KA3 KD1 (human)): 0%; inhibition (RPS6KA2 KD1 (human)): 0%; inhibition (RPS6KA1 KD1 (human)): 0%; inhibition (DMPK (human)): 0%; inhibition (AKT2 (human)): 0%; inhibition (RPS6KA5 KD1 (human)): 0%
CC(C)[C@H](CO)Nc1nc(Nc2ccc(C(=O)O)c(Cl)c2)c2ncn(C(C)C)c2n1	0	0	3	0	50	3	7	9	0	3	11	2	15	0	0	0	21	44	2	3	inhibition (PRKCD (human)): 5%; inhibition (RPS6KA3 KD1 (human)): 66%; inhibition (RPS6KA2 KD1 (human)): 79%; inhibition (RPS6KA1 KD1 (human)): 81%; inhibition (DMPK (human)): 0%; inhibition (AKT2 (human)): 0%; inhibition (RPS6KA5 KD1 (human)): 0%

Second part, led by results:

inhibition (SGK2 (human)) [%]	inhibition (AKT3 (human)) [%]	inhibition (SGK3 (human)) [%]	inhibition (PDPK1 (human)) [%]	inhibition (RPS6KA6 KD1 (human)) [%]	inhibition (PRKX (human)) [%]	inhibition (AURKC (human)) [%]	inhibition (STK32B (human)) [%]	inhibition (PRKCI (human)) [%]	inhibition (PRKACB (human)) [%]	inhibition (PRKCQ (human)) [%]	inhibition (PRKCE (human)) [%]	inhibition (AURKB (human)) [%]	inhibition (PKN1 (human)) [%]	inhibition (AKT1 (human)) [%]	inhibition (PRKCG (human)) [%]	inhibition (PRKACA (mouse)) [%]	inhibition (RPS6KA4 KD1 (human)) [%]	inhibition (PRKCH (human)) [%]	inhibition (AURKA (human)) [%]	SMILES	further results
0	0	0	0	0	5	6	8	0	0	1	5	25	7	0	4	1	0	0	0	c1ccc(-c2n[nH]cc2-c2ccnc3ccccc23)nc1	inhibition (PRKCD (human)): 0%; inhibition (RPS6KA3 KD1 (human)): 0%; inhibition (RPS6KA2 KD1 (human)): 0%; inhibition (RPS6KA1 KD1 (human)): 0%; inhibition (DMPK (human)): 3%; inhibition (AKT2 (human)): 0%; inhibition (RPS6KA5 KD1 (human)): 0%
0	0	0	1	0	0	0	0	0	0	0	0	0	0	0	0	1	0	0	0	CC(C)N(CCC(=O)c1ccc2ccccc2c1)Cc1ccccc1	inhibition (PRKCD (human)): 0%; inhibition (RPS6KA3 KD1 (human)): 0%; inhibition (RPS6KA2 KD1 (human)): 0%; inhibition (RPS6KA1 KD1 (human)): 0%; inhibition (DMPK (human)): 0%; inhibition (AKT2 (human)): 0%; inhibition (RPS6KA5 KD1 (human)): 2%
3	0	1	0	5	0	2	0	1	3	1	1	0	0	2	0	0	0	0	0	NC(=O)c1ccc(-c2nc(-c3ccccn3)c(-c3ccc4c(c3)OCCO4)[nH]2)cc1	inhibition (PRKCD (human)): 0%; inhibition (RPS6KA3 KD1 (human)): 0%; inhibition (RPS6KA2 KD1 (human)): 0%; inhibition (RPS6KA1 KD1 (human)): 0%; inhibition (DMPK (human)): 7%; inhibition (AKT2 (human)): 0%; inhibition (RPS6KA5 KD1 (human)): 2%
